# Values of other authors as cited in patent US20050277132A1, “Nematode GS-like sequences” (Divergence Inc., a Delaware corporation, priority 2001, published 2005).
# Assays:
# [1] = system: isolated intestinal epithelial cells
# [2] = system: everted hamster jejunal and ileal segments
# [3] = system: bacterial glutamine synthetase enzymes; settings: in vitro and in cell culture
# [4] = system: pathogenic bacteria that are known to secrete glutamine synthetase; settings: bacteria that secrete glutamine synthetase into the extracellular milieu
# [5] = system: nonpathogenic bacteria that do not export glutamine synthetase
Compound,cytotoxicity [1],effect on water and electrolyte absorption [2],times more active against certain bacterial glutamine synthetase enzymes than representative mammalian glutamine synthetases [3],growth of pathogenic bacteria [4],effect against nonpathogenic bacteria [5]
CCCCCC[C@@H](O)C/C=C\CCCCCCCC(=O)O [Ricinoleic acid],cytotoxic,inhibitory effect,–,–,–
CCCCCC[C@@H](O)C/C=C\CCCCCCCC(=O)OC [methyl ester of ricinoleic acid],–,ineffective,–,–,–
CS(=N)(=O)CC[C@H](N)C(=O)O (stereo partly drawn) [L-methionine-S-sulfoximine],–,–,100 times,selectively block growth,no effect
